Measurements published in ChEMBL document CHEMBL1201862, “PubChem BioAssay data set” (2004).
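Five compound concentrations were applied to cells in 96-well plates for 48 hours; endpoints were derived by simple linear interpolation of the resulting dose-response curve. At the GI50, growth is halved.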 Calls of active or inactive are those of the source. Cut-off read from the data, not from the text of the source: active = GI50 up to about 1.1 µM and inactive = higher.

How the values were obtained:
Experiment in all cases: DTP human tumour cell line panel, 48 h
A498 = system: A498
A549 = system: A549
ACHN = system: ACHN
BT-549 = system: BT-549
CAKI-1 = system: CAKI-1
DU-145 = system: DU-145
HCC 2998 = system: HCC 2998
HT-29 = system: HT-29
Hs-578T = system: Hs-578T
K562 = system: K562
MCF7 = system: MCF7
MDA-MB-435 = system: MDA-MB-435
OVCAR-8 = system: OVCAR-8
RPMI-8226 = system: RPMI-8226
SF-268 = system: SF-268
SF-539 = system: SF-539
SN12C = system: SN12C
SNB-75 = system: SNB-75
UO-31 = system: UO-31

Measured: GI50

CCOC(=O)c1cn2c(ccc3sc4ccccc4c(=O)c32)n1
inactive: A498 > 100 µM | A549 > 100 µM | ACHN > 100 µM | BT-549 > 100 µM | CAKI-1 > 100 µM | DU-145 > 100 µM | HCC 2998 > 100 µM | HT-29 > 100 µM | Hs-578T > 100 µM | K562 > 100 µM | MCF7 84.3 µM | MDA-MB-435 > 100 µM | OVCAR-8 > 100 µM | RPMI-8226 > 100 µM | SF-268 > 100 µM | SF-539 > 100 µM | SN12C > 100 µM | SNB-75 > 100 µM | UO-31 > 100 µM

CN(CCCN(C)Cc1ccc(Cl)c(Cl)c1)CCN1CCCC1
inactive: A498 13.9 µM | A549 19.1 µM | ACHN 27.8 µM | BT-549 30.8 µM | CAKI-1 29.2 µM | DU-145 62.1 µM | HCC 2998 3.5 µM | HT-29 4.13 µM | Hs-578T 17.7 µM | K562 4.67 µM | MCF7 18.4 µM | MDA-MB-435 3.33 µM | OVCAR-8 29.5 µM | RPMI-8226 4.28 µM | SF-268 27.5 µM | SF-539 16.7 µM | SN12C 37.8 µM | SNB-75 19.1 µM | UO-31 4.78 µM

O=[N+]([O-])c1ccc(Cl)cc1-n1nc(-c2ccccc2)cc1-c1ccccc1
inactive: A498 > 100 µM | A549 > 100 µM | ACHN > 100 µM | BT-549 > 100 µM | CAKI-1 > 100 µM | DU-145 > 100 µM | HCC 2998 > 100 µM | HT-29 97.3 µM | Hs-578T 81.3 µM | K562 > 100 µM | MCF7 95.1 µM | MDA-MB-435 > 100 µM | OVCAR-8 > 100 µM | RPMI-8226 > 100 µM | SF-268 > 100 µM | SF-539 50.5 µM | SN12C > 100 µM | SNB-75 > 100 µM | UO-31 > 100 µM

O=C1/C(=C\c2ccc(Cl)cc2Cl)Sc2scc(-c3cccc([N+](=O)[O-])c3)[n+]21
inactive: A498 49 µM | A549 18.1 µM | ACHN 3.33 µM | BT-549 4.45 µM | CAKI-1 3.03 µM | DU-145 14 µM | HCC 2998 7.64 µM | HT-29 3.28 µM | Hs-578T 24.7 µM | K562 3.1 µM | MCF7 3.98 µM | MDA-MB-435 10 µM | OVCAR-8 8.15 µM | RPMI-8226 4.48 µM | SF-268 9.1 µM | SF-539 1.81 µM | SN12C 5.33 µM | SNB-75 19.9 µM | UO-31 3.47 µM

O=C(O)c1ccccc1C(=O)c1ccc2c(c1)Cc1ccccc1-2
inactive: A498 > 100 µM | A549 33.3 µM | ACHN 56.6 µM | BT-549 78.9 µM | CAKI-1 > 100 µM | DU-145 > 100 µM | HCC 2998 28.1 µM | HT-29 48.8 µM | Hs-578T > 100 µM | K562 57.9 µM | MCF7 > 100 µM | MDA-MB-435 63.4 µM | OVCAR-8 83.2 µM | RPMI-8226 60.8 µM | SF-268 > 100 µM | SF-539 > 100 µM | SN12C > 100 µM | SNB-75 > 100 µM | UO-31 > 100 µM

O=C(Oc1cccc2cccnc12)c1cc2cc(CCl)ccc2oc1=O
inactive: A498 48.8 µM | A549 27.7 µM | ACHN 19 µM | BT-549 31.5 µM | CAKI-1 29.9 µM | DU-145 20.7 µM | HCC 2998 20.3 µM | HT-29 8.09 µM | Hs-578T 46.2 µM | K562 3.1 µM | MCF7 3.14 µM | MDA-MB-435 10.8 µM | OVCAR-8 34 µM | RPMI-8226 4.94 µM | SF-268 18.5 µM | SF-539 18 µM | SN12C 10.6 µM | SNB-75 56 µM | UO-31 9.91 µM

Clc1ccc2c(SCC3CO3)c3ccccc3nc2c1 (stereo not drawn)
inactive: A498 17.3 µM | A549 7.31 µM | ACHN 2.06 µM | BT-549 6.03 µM | CAKI-1 1.49 µM | DU-145 1.57 µM | HCC 2998 4.81 µM | HT-29 1.64 µM | Hs-578T 2.72 µM | K562 1.87 µM | MCF7 1.47 µM | MDA-MB-435 3.15 µM | OVCAR-8 2.19 µM | RPMI-8226 2.42 µM | SF-268 3.18 µM | SF-539 2.13 µM | SN12C 2.02 µM | SNB-75 9.55 µM | UO-31 1.76 µM
